# Measurements published in patent US9994528B2, “Certain amino-pyridines and amino-triazines, compositions thereof, and methods for their use” (Cytokinetics, Inc., priority 2010, dated 2018).
# Test system: rabbit skeletal myofibrils (approximately 90% fast fibers)
# Assay: Activation of fast skeletal myofibrils (PUMA coupled-enzyme ATPase assay)
# Type: biochemical
# Details: AC1.4 = concentration at which the compound increased the enzymatic activity by 40%; myofibril suspension at calcium level pCa25; PM12 buffer pH 6.8
# Experimental: Preparation of fast skeletal myofibrils. Rabbit skeletal myofibrils were prepared based upon the method of Herrmann et al. (Biochem. 32(28):7255-7263(1993). Myofibrils were prepared from rabbit psoas muscle purchased from Pel-Freez Biologicals (Arkansas) within 2 days of ordering, stored on ice. Minced muscle was homogenized in 10 volumes of ice-cold “standard” buffer (50 mM Tris, pH 7.4, 0.1 M potassium acetate, 5 mM KCl, 2 mM DTT, 0.2 mM PMSF, 10 μM leupeptin, 5 μM pepstatin, and 0.5 mM sodium azide) containing 5 mM EDTA and 0.5% Triton X-100 using an Omni-Macro homogenizer. Myofibrils were recovered by low speed centrifugation (3000 rpm for 10 minutes) and washed 2 times in the Triton X-100 containing buffer to ensure removal of cellular membrane. Following the Triton washes, myofibrils were washed 3 times in “standard” buffer containing 2 mM magnesium acetate. A final wash in assay buffer (12 mM PIPES, pH 6.8, 60 mM KCl, 1 mM DTT) was performed and brought to 10% sucrose for flash freezing in liquid nitrogen and storage at −80° C.
# Activation of Fast Skeletal Myofibrils. Fast fiber activators were identified by measuring the enzymatic activity of muscle myofibril preparations using the proprietary PUMA™ (see, e.g., U.S. Pat. Nos. 6,410,254, 6,743,599, 7,202,051, and 7,378,254) assay system. Myofibril preparations consisted of rabbit skeletal muscle (approximately 90% fast fibers) that had been mechanically homogenized and washed with a detergent (triton X-100) to remove cellular membranes. This preparation retained all of the sarcomeric components in a native conformation and the enzymatic activity was still regulated by calcium. Compounds were tested using a myofibril suspension and a level of calcium sufficient to increase enzymatic activity of the myofibrils to 25% of their maximal rate (termed pCa25). Enzymatic activity was tracked via a pyruvate kinase and lactate dehydrogenase-coupled enzyme system. This assay regenerates myosin-produced ADP into ATP by oxidizing NADH, producing an absorbance change at 340 nm. The buffering system was 12 mM Pipes, 2 mM MgCl2, 1 mM DTT at pH 6.8 (PM12 buffer).
# Using procedures similar to those described herein, utilizing reagents and intermediates commercially available (e.g., Sigma-Aldrich,) or readily synthesized by one of skill in the art, the compounds in Table 2 were synthesized, characterized and tested. AC1.4 values were determined according to the procedure described in Example 25, and the reported median AC1.4 values are as follows: A=<1 uM; B=1-10 uM; C=10-20 uM; D=>20 uM.
row,SMILES,Mean AC1.4
1,"CC(C)(Nc1ncc(-c2cc(C(N)=O)ccc2F)nn1)c1cccc(S(C)(=O)=O)c1 [4-fluoro-3-[3-({1-methyl-1-[3-(methylsulfonyl)phenyl]ethyl}amino)(1,2,4-triazin-6-yl)]benzamide]",D (D=>20 uM)
2,"NC(=O)c1ccc(F)c(-c2cnc(NC[C@]3(c4ncccc4F)C[C@H](F)C3)nn2)c1 [4-fluoro-3-[3-({[3-fluoro-1-(3-fluoro(2-pyridyl))cyclobutyl]methyl}amino)(1,2,4-triazin-6-yl)]benzamide]",A (A=<1 uM)
3,"O=C(O)c1ccc(F)c(-c2cnc(NCC3(c4ncccc4F)CCC3)nn2)c1 [4-fluoro-3-[3-({[(3-fluoro(2-pyridyl))cyclobulyl]methyl}amino)(1,2,4-triazin-6-yl)]benzoic acid]",B (B=1-10 uM)
4,"NC(=O)c1ccc(F)c(-c2cnc(NCC3(c4ncccc4F)CCC3)nn2)c1 [4-fluoro-3-[3-({[(3-fluoro(2-pyridyl))cyclobutyl]methyl}amino)(1,2,4-triazin-6-yl)]benzamide]",A (A=<1 uM)
5,"CC(C)(Nc1ncc(-c2ccc3[nH][nH]c(=O)c3c2)nn1)c1ncccc1F [5-(3-{[1-(3-fluoro(2-pyridyl))-isopropyl]amino}-1,2,4-triazin-6-yl)-1H-2-hydroindazol-3-one]",B (B=1-10 uM)
6,CC(C)(CNc1ccc(C(N)=O)cn1)c1ccc(F)cc1 [6-{[2-(4-f1uorophenyl)-2-methylpropyl]amino}pyridine-3-carboxamide],C (C=10-20 uM)
7,CC(C)(CNc1ccc(C#N)cn1)c1ccc(F)cc1 [6-{[2-(4-fluorophenyl)-2-methylpropyl]amino}pyridine-3-carbonitrile],C (C=10-20 uM)
8,c1ccc(-c2ccnc(NC3(c4ccccc4)CCC3)c2)cc1 [(4-phenyl(2-pyridyl))(phenylcyclobutyl)amine],C (C=10-20 uM)
9,c1ccc(-c2ccc(NC3(c4ccccc4)CCC3)nc2)cc1 [(5-phenyl(2-pyridyl))(phenylcyclobutyl)amine],B (B=1-10 uM)
10,"CC(C)(CNc1ncc(-c2ccc3[nH]ncc3c2)nn1)c1ncccc1F [(6-(1H-indazol-5-yl)(1,2,4-triazin-3-yl))[2-(3-fluoro(2-pyridyl))-2-methylpropyl]amine]",C (C=10-20 uM)
11,"Fc1cccnc1C1(CNc2ncc(-c3ccc4[nH]ncc4c3)nn2)CCC1 [(6-(1H-indazol-5-yl)(1,2,4-triazin-3-yl)){[(3-fluoro(2-pyridyl))cyclobutyl]methyl}amine]",B (B=1-10 uM)
12,CC(C)(CNc1cccc(Br)n1)c1ccc(F)cc1 [(6-bromo(2-pyridyl))[2-(4-fluorophenyl)-2-methylpropyl]amine],C (C=10-20 uM)
13,c1ccc(-c2cccc(NC3(c4ccccc4)CCC3)n2)cc1 [(6-phenyl(2-pyridyl))(phenylcyclobutyl)amine],D (D=>20 uM)
14,"CC(C)(Nc1ncc(-c2cc(C(=O)NC[C@H](O)CO)ccc2F)nn1)c1ncccc1F [N-((2S)-2,3-dihydroxypropyl)[4-fluoro-3-(3-{[1-(3-fluoro(2-pyridyl))-isopropyl]amino}(1,2,4-triazin-6-yl))phenyl]carboxamide]",C (C=10-20 uM)
15,"CC(=O)NCc1cnc(-c2cnc(NC[C@]3(c4ncccc4F)C[C@H](F)C3)nn2)s1 [N-({2-[3-({[3-fluoro-1-(3-fluoro(2-pyridyl))cyclobutyl]methyl}amino)-1,2,4-triazin-6-yl]-1,3-thiazol-5-yl}methyl)acetamide]",B (B=1-10 uM)

# The remaining lines, values ahead:
row,Mean AC1.4,SMILES
1,D (D=>20 uM),COC(=O)NCCc1ccc(NCC(C)(C)c2ccc(F)cc2)nc1 [N-[2-(6-{[2-(4-fluorophenyl)-2-methylpropyl]amino}(3-pyridyl))ethyl]methoxycarboxamide]
2,D (D=>20 uM),CC(=O)NCCc1ccc(NCC(C)(C)c2ccc(F)cc2)nc1 [N-[2-(6-{[2-(4-fluorophenyl)-2-methylpropyl]amino}-3-pyridyl)ethyl]acetamide]
3,D (D=>20 uM),COC(=O)NCc1ccc(NCC(C)(C)c2ccc(F)cc2)nc1 [N-[(6-{[2-(4-fluorophenyl)-2-methylpropyl]amino}(3-pyridyl))methyl]methoxycarboxamide]
4,D (D=>20 uM),"CC(=O)NCc1cnc(-c2cnc(NC(C)(C)c3ncccc3Cl)nn2)s1 [N-{[2-(3-{[1-(3-chloro(2-pyridyl))-isopropyl]amino}-1,2,4-triazin-6-yl)-1,3-thiazol-5-yl]methyl}acetamide]"
5,D (D=>20 uM),"CC(=O)NCc1ccc(F)c(-c2cnc(NC(C)(C)c3ncccc3F)nn2)c1 [N-{[4-fluoro-3-(3-{[1-(3-fluoro(2-pyridyl))-isopropyl]amino}(1,2,4-triazin-6-yl))phenyl]methyl}acetamide]"
6,D (D=>20 uM),"CC(C)(Nc1ncc(-c2nccs2)nn1)c1ncccc1F [[1-(3-fluoro(2-pyridyl))-isopropyl](6-(1,3-thiazol-2-yl)(1,2,4-triazin-3-yl))amine]"
7,D (D=>20 uM),"CC(C)(Nc1ncc(-c2ncc(CO)s2)nn1)c1ncccc1Cl [[2-(3-{[1-(3-chloro(2-pyridyl))-isopropyl]amino}-1,2,4-triazin-6-yl)-1,3-thiazol-5-yl]methan-1-ol]"
8,D (D=>20 uM),CC(C)=Cc1cccc(NCC(C)(C)c2ccc(F)cc2)n1 [[2-(4-fluorophenyl)-2-methylpropyl][6-(2-methylprop-1-enyl)(2-pyridyl)]amine]
9,D (D=>20 uM),CC(C)(CNc1ccc(CCNS(C)(=O)=O)cn1)c1ccc(F)cc1 [[2-(6-{[2-(4-fluorophenyl)-2-methylpropyl]amino}(3-pyridyl))ethyl](methylsulfonyl)amine]
10,D (D=>20 uM),CC(C)(CNc1cc(-c2ccc(F)cc2)ccn1)c1ccc(F)cc1 [[4-(4-fluorophenyl)(2-pyridyl)][2-(4-fluorophenyl)-2-methylpropyl]amine]
11,C (C=10-20 uM),"CC(C)(Nc1ncc(-c2cc(NS(C)(=O)=O)ccc2F)nn1)c1ncccc1F [[4-fluoro-3-(3-{[1-(3-fluoro(2-pyridyl))-isopropyl]amino}(1,2,4-triazin-6-yl))phenyl](methylsulfonyl)amine]"
12,C (C=10-20 uM),"CC(C)(Nc1ncc(-c2cc(CO)ccc2F)nn1)c1ncccc1F [[4-fluoro-3-(3-{[1-(3-fluoro(2-pyridyl))-isopropyl]amino}(1,2,4-triazin-6-yl))phenyl]methan-1-ol]"
13,A (A=<1 uM),"CC(C)(CNc1ncc(-c2ccc3[nH]nc(N)c3c2)nn1)c1ccc(F)cc1 [[6-(3-amino(1H-indazol-5-yl))(1,2,4-triazin-3-yl)][2-(4-fluorophenyl)-2-methylpropyl]amine]"
14,B (B=1-10 uM),"Nc1n[nH]c2ccc(-c3cnc(NCC4(c5ncccc5F)CCC4)nn3)cc12 [[6-(3-amino(1H-indazol-5-yl))(1,2,4-triazin-3-yl)]{[(3-fluoro(2-pyridyl))cyclobutyl]methyl}amine]"
15,B (B=1-10 uM),"CC(C)(Nc1ncc(-c2cc(N)ccc2F)nn1)c1ncccc1F [[6-(3-amino-6-fluorophenyl)(1,2,4-triazin-3-yl)][1-(3-fluoro(2-pyridyl))-isopropyl]amine]"
16,D (D=>20 uM),CC(C)(CNc1cccc(-c2ccc(F)cc2)n1)c1ccc(F)cc1 [[6-(4-fluorophenyl)(2-pyridyl)][2-(4-fluorophenyl)-2-methylpropyl]amine]
